Tested on: S. typhimurium
Assay type: cell-based
Conditions: up to 50 mM, 30 min exposure
Description: FIGS. 17 (a-c) Curve of toxicity of benzyl alcohol. Effect of 30 min exposure to increasing concentration (5 to 80 mM) benzyl alcohol (BA) on the growth of S. typhimurium.

How did the “toxic effect on the growth of Salmonella” value turn out when OCc1ccccc1 [BA, benzyl alcohol] was run?
The value was “no toxic effect”.

— patent US20050158277A1 (priority 2001, published 2005)
